Experimental data as given in publication PMC12368479, “Inhibition of the Clathrin Terminal Domain—Amphiphysin Protein–Protein Interaction. Probing the Pitstop 2 Aromatic Moiety” (Chemmedchem, 2025).
Like-named read-outs stand apart in the source and are kept apart here.

Legend:
[1] = target: T1, clathrin heavy chain NTD (amino acids 1–364) – amphiphysin 1 B/C domain protein–protein interaction (NTD‐PPI) (Homo sapiens, UniProt Q00610); parameters: method as in PMID 21816279, PMID 27853797; details: Figure 1, lead Pitstop 2 and earlier analogs; read-out: IC50 (clathrin NTD‐PPI inhibition); cited from earlier work
T1 construct: GST‐tagged clathrin heavy chain NTD (amino acids 1–364); made in house
T1 sequence (Q00610 1-364): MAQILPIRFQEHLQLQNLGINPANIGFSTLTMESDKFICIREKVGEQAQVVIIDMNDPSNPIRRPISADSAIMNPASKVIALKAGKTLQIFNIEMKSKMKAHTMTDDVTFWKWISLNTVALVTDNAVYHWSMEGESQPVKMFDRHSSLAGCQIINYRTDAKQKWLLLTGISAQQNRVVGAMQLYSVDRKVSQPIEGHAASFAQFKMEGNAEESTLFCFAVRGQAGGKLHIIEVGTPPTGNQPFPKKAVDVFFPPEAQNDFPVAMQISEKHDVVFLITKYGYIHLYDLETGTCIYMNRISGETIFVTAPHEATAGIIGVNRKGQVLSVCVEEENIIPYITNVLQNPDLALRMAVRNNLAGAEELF

[2] = Qualitative solubility in solvents (compound data sheets, Supporting Information); format: physicochemical; details: solvents in which the compound dissolves
[3] = target: T2, full length human Dynamin I (Homo sapiens, UniProt Q05193); assay: Dynamin GTPase activity, Malachite Green phosphate detection assay; format: biochemical
T2 construct: full length human Dynamin I expressed in Sf21 insect cells; made in house; host or cells: Sf21 insect cells
T2 sequence (Q05193 1-864): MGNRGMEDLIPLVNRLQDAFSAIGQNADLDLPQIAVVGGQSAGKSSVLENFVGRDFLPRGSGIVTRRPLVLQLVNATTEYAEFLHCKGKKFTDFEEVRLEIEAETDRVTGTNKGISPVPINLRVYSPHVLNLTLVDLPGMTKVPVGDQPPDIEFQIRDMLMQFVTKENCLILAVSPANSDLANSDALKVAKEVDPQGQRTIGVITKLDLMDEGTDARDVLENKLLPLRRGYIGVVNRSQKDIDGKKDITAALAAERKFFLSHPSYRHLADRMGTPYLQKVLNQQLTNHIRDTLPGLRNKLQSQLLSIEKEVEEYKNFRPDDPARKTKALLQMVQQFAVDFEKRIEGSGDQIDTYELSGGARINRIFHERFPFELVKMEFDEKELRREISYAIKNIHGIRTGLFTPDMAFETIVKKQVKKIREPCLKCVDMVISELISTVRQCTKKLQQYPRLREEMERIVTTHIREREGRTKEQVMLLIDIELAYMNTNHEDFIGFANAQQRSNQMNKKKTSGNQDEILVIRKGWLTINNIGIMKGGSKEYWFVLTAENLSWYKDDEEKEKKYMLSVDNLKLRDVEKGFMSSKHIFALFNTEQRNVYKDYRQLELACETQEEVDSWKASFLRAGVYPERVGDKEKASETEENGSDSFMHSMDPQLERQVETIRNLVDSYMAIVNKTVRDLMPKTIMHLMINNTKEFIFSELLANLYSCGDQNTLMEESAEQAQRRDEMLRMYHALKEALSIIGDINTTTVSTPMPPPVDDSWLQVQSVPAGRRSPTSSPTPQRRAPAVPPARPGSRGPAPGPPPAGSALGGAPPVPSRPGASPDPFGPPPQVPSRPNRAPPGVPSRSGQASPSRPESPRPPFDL
Protocol: Dynamin GTPase activity was determined in vitro using the Malachite Green phosphate detection absorbance‐based assay within a 96‐well plate format as described previously. The enzyme source was full length human Dynamin I expressed in Sf21 insect cells and affinity‐purified on GST‐Amph2‐SH3 (rat Amphiphysin 2 (494–588)).^[ [56] ^]

[4] = target: T1, clathrin heavy chain NTD (amino acids 1–364) – amphiphysin 1 B/C domain protein–protein interaction (NTD‐PPI); assay: ELISA-based clathrin inhibitor binding assay (NTD-PPI)
In short: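 Binding is given relative to DMSO control, measured colorimetrically (HRP anti-GST, TMB) after compounds and GST-tagged clathrin heavy-chain NTD (1–364) were co-incubated 1 h at room temperature on immobilised His6-amphiphysin 1 B/C domain (250–578), in HEPES pH 7.4 buffer with 50 mM NaCl.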

[5] = system: transferrin uptake (CME) in U2OS osteosarcoma cells; assay: Clathrin-mediated endocytosis assay: transferrin (Tfn) uptake in U2OS cells; format: cell-based; details: Homo sapiens, U2OS
Protocol: Using our previously reported CME assay in U2OS cells, the ability of these compounds to block endocytosis was examined (Table 5 ).^[ [48], [49] ^]
CME was examined by a high‐throughput, quantitative assay for measuring transferrin (Tfn) uptake in U2OS osteosarcoma cells, based on methods described previously.^[ [48] ^]
Compounds were made up fresh from powder stock just prior to commencing the assay, and stock solutions were stored at −20 °C for several months.

[6] = Table 1, library 1, n = 1 unless noted (19: n = 2), '–' = not active at 150 μM, read-out: Dyn 1 IC50
[7] = Table 5, dynamin GTPase, n = 1 or n = 2 as footnoted, NA = not active at 100 μM, read-out: Dynamin 1 IC50
[8] = Table 1, library 1, ELISA, average of duplicate measurements (n=2), read-out: NTD‐PPI IC50
[9] = Table 5, ELISA, read-out: NTD‐PPI IC50
[10] = Table 5, inhibition of transferrin‐red uptake in U2OS cells, '–'/NA = not active at 100 μM
[11] = Table 4, library 4, ELISA, average of duplicate measurements (n = 2), read-out: NTD‐PPI IC50
[12] = Table 4, library 4, n = 1 or n = 2 as footnoted, '–' = not active at 100 μM, read-out: Dynamin 1 IC50

O=C1N=C(NS(=O)(=O)c2cccc3ccccc23)S/C1=C\c1ccc(Br)cc1 [Pitstop 2, (Z)‐N‐(5‐(4‐bromenzylidene)‐4‐oxo‐4,5‐dihydrothiazol‐2‐yl)naphthalene‐1‐sulfonamide]
IC50 [1]: 1.9 µM

O=C1N=C(NS(=O)(=O)c2cccc(Cl)c2)S/C1=C\c1ccc(Br)cc1 [compound 2]
IC50 [1]: 5.1 µM

O=C1N=C(NS(=O)(=O)c2cccc3ccccc23)S/C1=C\c1cccc(O)c1O [compound 3]
IC50 [1]: 3.5 µM

O=C1N=C(NS(=O)(=O)c2cccc3ccccc23)S/C1=C\c1ccc(O)cc1 [compound 6, (Z)‐N‐(5‐(4‐hydroxybenzylidene)‐4‐oxo‐4,5‐dihydrothiazol‐2‐yl)naphthalene‐1‐sulfonamide]
Solubility [2]: DMSO, slightly soluble in ethanol, acetone, methanol and ethyl acetate
IC50 [3, 6]: > 150 µM
IC50 [3, 7]: > 100 µM
IC50 [4, 8]: 5.6 µM
IC50 [4, 9]: 5.6 µM
IC50 ([4]; read-out: NTD‐PPI IC50 (ELISA)): 2.7 µM
IC50 [5, 10]: 46.7 ± 13.1 µM

O=C1N=C(NS(=O)(=O)c2cccc3ccccc23)S/C1=C\c1cccc(O)c1 [compound 7, N‐[(5Z)‐5‐(3‐hydroxybenzylidene)‐4‐oxo‐4,5‐dihydro‐1,3‐thiazol‐2‐yl]naphthalene‐1‐sulfonamide]
Solubility [2]: DMSO, slightly soluble in acetone, ethyl acetate, methanol and ethanol
IC50 [3, 6]: > 150 µM
IC50 [3, 7]: > 100 µM
IC50 [5, 10]: 25 ± 14.6 µM

O=C1N=C(NS(=O)(=O)c2cccc3ccccc23)S/C1=C\c1ccc(C(=O)O)cc1 [compound 9, 4‐[(Z)‐{2‐[(naphthalen‐1‐ylsulfonyl)amino]‐4‐oxo‐1,3‐thiazol‐5(4H)‐ylidene}methyl]benzoic acid]
Solubility [2]: DMSO, slightly soluble in acetone, ethyl acetate, ethanol and methanol
IC50 [3, 6]: > 150 µM
IC50 [4, 8]: 7.4 µM

O=C1N=C(NS(=O)(=O)c2cccc3ccccc23)S/C1=C\c1cccc(C(=O)O)c1 [compound 10, (Z)‐3‐((2‐(naphthalene‐1‐sulfonamido)‐4‐oxothiazol‐5(4 H)‐ylidene)methyl)benzoic acid]
Solubility [2]: DMSO
IC50 [3, 6]: > 150 µM
IC50 [4, 8]: 5.3 µM

O=C1N=C(NS(=O)(=O)c2cccc3ccccc23)S/C1=C\c1cccc([N+](=O)[O-])c1 [compound 14, (Z)‐N‐(5‐(3‐nitrobenzylidene)‐4‐oxo‐4,5‐dihydrothiazol‐2‐yl)naphthalene‐1‐sulfonamide]
Solubility [2]: DMSO, slightly soluble in acetone, ethanol and methanol
IC50 [3, 6]: > 150 µM
IC50 [3, 7]: > 100 µM
IC50 [5, 10]: 34.4 ± 13.7 µM

O=C1N=C(NS(=O)(=O)c2cccc3ccccc23)S/C1=C\c1ccccc1[N+](=O)[O-] [compound 15, (Z)‐N‐(5‐(2‐nitrobenzylidene)‐4‐oxo‐4,5‐dihydrothiazol‐2‐yl)naphthalene‐1‐sulfonamide]
Solubility [2]: DMSO, slightly soluble in ethyl acetate, acetone, ethanol and methanol
IC50 [3, 6]: 42.2 µM
IC50 [3, 7]: ~42.4 µM
fold potency reduction (NTD‐PPI) ([4]; ELISA, comparator not named (lead Pitstop 2 series)): > 100 fold
IC50 [4, 8]: 153 µM
IC50 [4, 9]: 153 µM
IC50 [5, 10]: 46.3 ± 13.7 µM

O=C1N=C(NS(=O)(=O)c2cccc3ccccc23)S/C1=C\c1ccc[nH]1 [compound 47, (Z)‐N‐(5‐((1H‐pyrrol‐2‐yl)methylene)‐4‐oxo‐4,5‐dihydrothiazol‐2‐yl)naphthalene‐1‐sulfonamide]
Solubility [2]: DM SO slightly soluble in acetone an d methanol
fold less active (NTD‐PPI) than furan (48) ([4]; ELISA, C2 linked analogues): 2 fold
IC50 [4, 11]: 5.3 µM
IC50 [4, 9]: 5.3 µM
IC50 [5, 10]: 27.2 ± 11.7 µM

O=C1N=C(NS(=O)(=O)c2cccc3ccccc23)S/C1=C\c1ccco1 [compound 48, (Z)‐N‐(5‐(furan‐2‐ylmethylene)‐4‐oxo‐4,5‐dihydrothiazol‐2‐yl)naphthalene‐1‐sulfonamide]
Solubility [2]: DM SO, slig htly soluble in methanol
IC50 [4, 11]: 3.64 µM
IC50 [4, 9]: 3.64 µM
IC50 ([4]; read-out: NTD‐PPI IC50 (ELISA)): 3.6 µM
IC50 [5, 10]: ~96.6 µM
IC50 ([5]; U2OS cells): > 50 µM

O=C1COc2ccc(/C=C3\SC(NS(=O)(=O)c4cccc5ccccc45)=NC3=O)cc2N1 [compound 52, (Z)‐N‐(4‐oxo‐5‐((3‐oxo‐3,4‐dihydro‐2H‐benzo[b][1,4]oxazin‐6‐yl)methylene)‐4,5‐dihydrothiazol‐2‐yl)naphthalene‐1‐sulfonamide]
Solubility [2]: DM SO, slig htly soluble in acetone, ethanol an d m ethanol
IC50 [3, 12]: ~54.1 µM
IC50 [3, 7]: ~54.1 µM
IC50 [4, 11]: 3.33 µM
IC50 [4, 9]: 3.33 µM
IC50 ([4]; read-out: NTD‐PPI IC50 (ELISA)): < 5 µM
IC50 [5, 10]: > 100 µM
IC50 ([5]; U2OS cells): > 50 µM

O=C1N=C(NS(=O)(=O)c2cccc3ccccc23)S/C1=C\c1ccc2c(c1)CCO2 [compound 57, (Z)‐N‐(5‐((2,3‐dihydrobenzofuran‐5‐yl)methylene)‐4‐oxo‐4,5‐dihydrothiazol‐2‐yl)naphthalene‐1‐sulfonamide]
Solubility [2]: DM SO, slig htly soluble in ethyl acetate, aceton e, ethanol and methanol
IC50 [3, 12]: > 100 µM
IC50 [3, 7]: > 100 µM
IC50 [4, 11]: 3.27 µM
IC50 ([4]; read-out: NTD‐PPI IC50 (ELISA)): < 5 µM
IC50 [5, 10]: 58.1 ± 12.6 µM
IC50 ([5]; U2OS cells): > 50 µM
